Measurements from publication PMC6438731, “Extrasynaptic δ‐GABAA receptors are high‐affinity muscimol receptors” (Journal of Neurochemistry, 2019).
Values joined by “and” are separate entries in the source; they are usually repeats but may differ in a detail not shown here. Equal values may be shown once. Read-outs that look alike come from different tables or passages of the source.

Assays:
[1] = molecular target: T1, α6β3δ recombinant GABAA receptor (Rattus norvegicus, UniProt P30191+P63079); assay: [^3H]muscimol binding kinetics, recombinant α6β3δ in HEK293 membranes
T1 construct: expressed in transfected cells; host or cells: HEK293 (ATCC CRL-1573), pRK5 plasmids, membranes
Excerpt: Human embryonic kidney (HEK) 293 cells (ATCC Cat# CRL‐1573; RRID: CVCL_0045; a commonly misidentified cell line by ICLAC; last authenticated by STR DNA profiling in December 2018) were transfected with rat cDNAs (α1, L08490; α6, L08495; β2, X15467; β3, X15468; γ2S, L08497; δ, L08496) in pRK5 plasmids under the control of the cytomegalovirus promoter (Uusi‐Oukari et al. 2000), using the calcium phosphate precipitation method essentially as described (Lüddens and Korpi 1997). The plasmids were used in 1 : 1 and 1 : 1 : 1 ratios for transfections containing 2 [(α1 or α6) + (β2 or β3)] or 3 [(α1 or α6) + (β2 or β3) + (γ2S or δ)] different subunits, respectively (5 μg of each plasmid DNA for a 10 cm plate). Mock transfection was done using 5 μg pRK5 plasmid backbone. The cells were harvested 48 h after transfection. Culture medium was removed and the cells were detached from the plates by pipetting in ice‐cold assay buffer containing 2 mM EDTA. The cells were homogenized (Ultra Turrax, 20 s at 9500 rpm), the homogenates centrifuged at 20 000 g for 10 min at +4°C, and washed once with the same buffer. The homogenates were finally suspended in assay buffer (1 mL/plate) and either used directly to binding assays or stored frozen at −70°C.
The binding of [^3H]muscimol (5 nM) was measured in assay buffer at 22°C in a total volume of 300 μL. […] Air‐dried filters were immersed in 3 mL of Optiphase HiSafe 3 scintillation fluid (Wallac, Turku, Finland) and radioactivity determined in a Wallac model 1410 liquid scintillation counter (Wallac, Turku, Finland). […]
(§1) The tubes were mixed and incubations at 22°C were terminated at various time points (30 s – 30 min) as described above. Dissociation of [^3H]muscimol from recombinant receptors in HEK cell membranes was also measured at 0–4°C (on ice) to evaluate how fast [^3H]muscimol dissociates from receptors while washing the filter with ice‐cold assay buffer during filtration.

[2] = molecular target: forebrain membranes of δKO mice (non‐δ‐GABAARs); assay: [^3H]muscimol binding kinetics, δKO forebrain membranes; set-up: species or system mouse
Protocol: (§2) WT and δKO forebrain and cerebellar membranes were prepared using a modification of the method of Squires and Saederup (2000) essentially as described by Uusi‐Oukari et al. (2014). […] forebrain along with midbrain region was homogenized into 10 mM Tris‐HCl, pH 8.0 buffer containing 2 mM EDTA, using an Ultra‐Turrax T25 (Janke & Kunkel IKA labortechnik) for 20 s at 9500 rpm. The homogenates were centrifuged at 20 000 g for 10 min at +4°C and the resulting pellets were washed three times by resuspension and re‐centrifugation with 10 mM Tris‐HCl, pH 8.5 buffer containing 0.2 M NaCl, and 5 mM EDTA. The resulting pellets were then suspended in ice‐cold H2O and centrifuged. The pellets were again washed three times with Tris, pH 8.5/NaCl/EDTA as described above. The resulting pellets were finally suspended in assay buffer consisting of 50 mM Tris‐base, pH adjusted to 7.4 with citric acid, and frozen at −70°C. Before a binding experiment, the suspension was thawed, centrifuged, and suspended in assay buffer.
The binding of [^3H]muscimol (5 nM) was measured in assay buffer at 22°C in a total volume of 300 μL. Triplicate technical replicates of mouse forebrain (190–215 μg protein), cerebellar (180–210 μg protein) or HEK cell (92–132 μg protein) membranes for each time point were incubated with shaking for various times (15 s–15 min) to measure association of the binding. […] The incubation was terminated by filtration of the samples with a Brandel Cell Harvester (model M‐24, Gaithersburg, MD, USA) onto Whatman GF/B filters (Whatman International Ltd., Maidstone, UK). The samples were rinsed twice with 4–5 mL of ice‐cold assay buffer. Filtration and rinsing steps took a total time of ~15 s. Air‐dried filters were immersed in 3 mL of Optiphase HiSafe 3 scintillation fluid (Wallac, Turku, Finland) and radioactivity determined in a Wallac model 1410 liquid scintillation counter (Wallac, Turku, Finland). The maximal binding disintegrations per minute (DPM) values (at 15 min in association) for recombinant studies with 5 nM [^3H]muscimol were between 700 and 2500 DPMs of specific binding (background subtracted). In native membranes, the maximal DPM values were between 2500 and 3000 for WTs and 1300–1500 for δKOs.
as §1

[3] = molecular target: forebrain membranes of WT mice; assay: [^3H]muscimol binding kinetics, WT forebrain membranes; set-up: species or system mouse
Protocol: as §2
(§3) The binding of [^3H]muscimol (5 nM) was measured in assay buffer at 22°C in a total volume of 300 μL. Triplicate technical replicates of mouse forebrain (190–215 μg protein), cerebellar (180–210 μg protein) or HEK cell (92–132 μg protein) membranes for each time point were incubated with shaking for various times (15 s–15 min) to measure association of the binding. […] Air‐dried filters were immersed in 3 mL of Optiphase HiSafe 3 scintillation fluid (Wallac, Turku, Finland) and radioactivity determined in a Wallac model 1410 liquid scintillation counter (Wallac, Turku, Finland). […]
as §1

[4] = molecular target: cerebellar membranes of WT mice; assay: Saturation analysis of [^3H]muscimol binding, WT cerebellar membranes; set-up: species or system mouse; details: 0°C
Protocol: as §2
(§4) Saturation analysis of [^3H]muscimol to WT and δKO mouse forebrain and cerebellar membranes was performed essentially as described by Uusi‐Oukari and Korpi (1989). […] The incubations were terminated as described above.

[5] = molecular target: forebrain membranes of δKO mice; assay: Saturation analysis of [^3H]muscimol binding, δKO forebrain membranes; set-up: species or system mouse; details: 0°C
Protocol: as §2, §4

[6] = molecular target: T2, α1β2 recombinant GABAA receptor (Rattus norvegicus, UniProt P62813+P63138); assay: [^3H]muscimol binding kinetics, recombinant α1β2 in HEK293 membranes; details: room temperature (22°C)
T2 construct: expressed in transfected cells; host or cells: HEK293 (ATCC CRL-1573), pRK5 plasmids, membranes
Excerpt: Human embryonic kidney (HEK) 293 cells (ATCC Cat# CRL‐1573; RRID: CVCL_0045; a commonly misidentified cell line by ICLAC; last authenticated by STR DNA profiling in December 2018) were transfected with rat cDNAs (α1, L08490; α6, L08495; β2, X15467; β3, X15468; γ2S, L08497; δ, L08496) in pRK5 plasmids under the control of the cytomegalovirus promoter (Uusi‐Oukari et al. 2000), using the calcium phosphate precipitation method essentially as described (Lüddens and Korpi 1997). The plasmids were used in 1 : 1 and 1 : 1 : 1 ratios for transfections containing 2 [(α1 or α6) + (β2 or β3)] or 3 [(α1 or α6) + (β2 or β3) + (γ2S or δ)] different subunits, respectively (5 μg of each plasmid DNA for a 10 cm plate). […]
The binding of [^3H]muscimol (5 nM) was measured in assay buffer at 22°C in a total volume of 300 μL. […] Air‐dried filters were immersed in 3 mL of Optiphase HiSafe 3 scintillation fluid (Wallac, Turku, Finland) and radioactivity determined in a Wallac model 1410 liquid scintillation counter (Wallac, Turku, Finland).
as §1

[7] = molecular target: native δ‐GABAARs in the forebrain (WT‐δKO, predominantly α4βδ) (Mus musculus, UniProt P63137+Q9D6F4); assay: [^3H]muscimol binding kinetics, forebrain WT‐δKO (subtracted); details: 22°C
Protocol: as §2, §3
as §1, with “filtration. […]” for “filtration.”

[8] = room temperature (22°C), 5 nM [^3H]muscimol
[9] = forebrain WT‐δKO (native δ‐GABAARs, by subtraction)

T1 sequence (P30191 20-453): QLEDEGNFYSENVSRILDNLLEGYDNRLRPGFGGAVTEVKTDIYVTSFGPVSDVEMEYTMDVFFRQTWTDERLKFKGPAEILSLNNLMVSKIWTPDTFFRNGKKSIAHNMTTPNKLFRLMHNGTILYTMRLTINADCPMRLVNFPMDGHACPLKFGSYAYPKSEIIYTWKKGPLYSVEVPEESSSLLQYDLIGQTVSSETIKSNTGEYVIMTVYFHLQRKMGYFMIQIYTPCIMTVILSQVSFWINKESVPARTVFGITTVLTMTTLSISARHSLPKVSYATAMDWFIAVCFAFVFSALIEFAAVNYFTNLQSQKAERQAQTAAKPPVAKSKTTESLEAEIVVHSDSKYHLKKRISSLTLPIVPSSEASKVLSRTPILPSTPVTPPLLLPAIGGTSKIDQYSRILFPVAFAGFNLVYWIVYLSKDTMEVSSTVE
T1 sequence (P63079 26-473): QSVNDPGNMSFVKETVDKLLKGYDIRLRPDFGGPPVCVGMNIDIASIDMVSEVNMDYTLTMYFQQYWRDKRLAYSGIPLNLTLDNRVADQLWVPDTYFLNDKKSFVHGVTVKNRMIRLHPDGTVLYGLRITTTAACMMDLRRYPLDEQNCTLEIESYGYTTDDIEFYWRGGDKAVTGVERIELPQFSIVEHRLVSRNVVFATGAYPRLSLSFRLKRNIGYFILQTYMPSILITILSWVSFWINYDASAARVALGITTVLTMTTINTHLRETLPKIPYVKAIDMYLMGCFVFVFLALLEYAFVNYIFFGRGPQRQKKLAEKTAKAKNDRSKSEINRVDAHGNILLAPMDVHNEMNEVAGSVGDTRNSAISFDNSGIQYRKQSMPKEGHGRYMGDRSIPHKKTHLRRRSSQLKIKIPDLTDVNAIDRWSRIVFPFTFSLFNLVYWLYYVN
T1 sequence (P18506 25-449 partner): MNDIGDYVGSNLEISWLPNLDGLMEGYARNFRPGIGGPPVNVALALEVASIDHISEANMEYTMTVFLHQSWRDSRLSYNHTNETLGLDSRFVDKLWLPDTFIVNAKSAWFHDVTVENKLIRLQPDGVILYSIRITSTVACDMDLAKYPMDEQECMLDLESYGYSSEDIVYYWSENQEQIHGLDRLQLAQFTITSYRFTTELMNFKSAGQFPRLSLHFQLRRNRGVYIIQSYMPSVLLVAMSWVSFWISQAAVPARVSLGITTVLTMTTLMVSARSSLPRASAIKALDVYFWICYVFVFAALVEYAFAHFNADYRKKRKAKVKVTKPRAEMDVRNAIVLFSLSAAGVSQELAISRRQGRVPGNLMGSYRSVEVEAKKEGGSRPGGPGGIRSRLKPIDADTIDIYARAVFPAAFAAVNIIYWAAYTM
native δ‐GABAARs in the forebrain (WT‐δKO, predominantly α4βδ), sequence (Q9D6F4 36-552): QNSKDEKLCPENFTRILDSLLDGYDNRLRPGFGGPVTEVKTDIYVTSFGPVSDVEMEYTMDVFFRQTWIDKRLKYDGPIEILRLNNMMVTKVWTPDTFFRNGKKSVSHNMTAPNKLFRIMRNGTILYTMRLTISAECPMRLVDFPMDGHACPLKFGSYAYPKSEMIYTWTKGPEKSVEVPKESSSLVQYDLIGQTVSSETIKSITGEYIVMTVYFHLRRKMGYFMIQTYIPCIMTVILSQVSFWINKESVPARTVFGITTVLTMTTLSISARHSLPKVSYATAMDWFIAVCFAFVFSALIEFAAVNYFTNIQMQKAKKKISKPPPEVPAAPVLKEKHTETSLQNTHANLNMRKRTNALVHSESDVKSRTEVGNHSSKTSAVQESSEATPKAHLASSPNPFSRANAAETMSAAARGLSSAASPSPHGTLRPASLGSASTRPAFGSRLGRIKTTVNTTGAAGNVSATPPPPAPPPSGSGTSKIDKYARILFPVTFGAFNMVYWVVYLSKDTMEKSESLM
native δ‐GABAARs in the forebrain (WT‐δKO, predominantly α4βδ), sequence (P63137 26-512): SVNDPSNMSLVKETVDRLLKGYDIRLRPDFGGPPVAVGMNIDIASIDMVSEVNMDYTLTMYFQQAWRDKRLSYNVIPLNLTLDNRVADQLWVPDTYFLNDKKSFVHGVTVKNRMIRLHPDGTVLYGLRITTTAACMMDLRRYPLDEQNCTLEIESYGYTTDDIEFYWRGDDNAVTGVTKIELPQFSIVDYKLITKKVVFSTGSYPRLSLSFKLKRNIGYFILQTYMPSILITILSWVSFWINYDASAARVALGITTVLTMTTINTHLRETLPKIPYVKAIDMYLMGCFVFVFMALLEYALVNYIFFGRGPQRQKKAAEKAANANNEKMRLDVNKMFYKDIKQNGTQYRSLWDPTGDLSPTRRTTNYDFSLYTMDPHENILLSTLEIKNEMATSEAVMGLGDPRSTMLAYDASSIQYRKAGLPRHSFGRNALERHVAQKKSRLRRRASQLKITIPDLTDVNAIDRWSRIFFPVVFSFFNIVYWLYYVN
native δ‐GABAARs in the forebrain (WT‐δKO, predominantly α4βδ), sequence (P22933 25-449 partner): as the sequence (P18506 25-449 partner) above, with P38A, M149L counted along it
T2 sequence (P62813 28-455): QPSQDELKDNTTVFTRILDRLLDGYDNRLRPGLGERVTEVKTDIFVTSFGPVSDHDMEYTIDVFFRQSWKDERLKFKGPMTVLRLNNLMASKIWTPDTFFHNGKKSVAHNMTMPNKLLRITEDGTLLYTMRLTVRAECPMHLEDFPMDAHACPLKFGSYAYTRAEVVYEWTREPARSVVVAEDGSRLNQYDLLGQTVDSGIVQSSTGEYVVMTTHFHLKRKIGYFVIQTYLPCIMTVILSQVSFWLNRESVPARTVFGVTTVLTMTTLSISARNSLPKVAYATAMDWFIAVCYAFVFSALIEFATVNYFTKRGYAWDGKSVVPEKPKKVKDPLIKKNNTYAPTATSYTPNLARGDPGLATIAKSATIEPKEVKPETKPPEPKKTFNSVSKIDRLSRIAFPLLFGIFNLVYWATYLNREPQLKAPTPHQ
T2 sequence (P63138 26-474): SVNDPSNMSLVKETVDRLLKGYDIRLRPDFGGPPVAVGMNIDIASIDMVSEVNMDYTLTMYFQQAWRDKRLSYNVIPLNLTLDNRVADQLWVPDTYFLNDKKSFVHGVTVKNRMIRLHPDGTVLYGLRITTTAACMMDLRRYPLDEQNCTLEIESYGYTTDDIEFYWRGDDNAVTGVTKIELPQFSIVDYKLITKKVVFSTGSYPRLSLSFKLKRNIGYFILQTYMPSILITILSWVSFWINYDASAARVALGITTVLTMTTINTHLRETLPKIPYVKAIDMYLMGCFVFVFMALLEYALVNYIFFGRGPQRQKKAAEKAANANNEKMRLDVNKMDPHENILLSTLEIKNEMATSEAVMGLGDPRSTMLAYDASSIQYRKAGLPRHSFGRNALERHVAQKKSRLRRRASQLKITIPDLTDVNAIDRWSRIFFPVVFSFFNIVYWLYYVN

With NCc1cc(=O)[nH]o1 [[^3H]muscimol] [[Methylene‐^3H]muscimol] the Kd ([1]; 22°C, K D = koff/kon) was 0.72 nM, the k off ([1]; room temperature (22°C)) was 0.13 ± 0.01 ^### min^−1 and the k on [1, 8] was 1.8 ± 0.1 × 10^8, ^### M^−1 × min^−1. The Kd ([2]; calculated from k on and k off, read-out: apparent [^3H]muscimol affinities (K D) for non‐δ‐GABAARs) was about 1 nM, the Kd ([2]; forebrain membranes, 22°C, K D = koff/kon, read-out: K D) was 1.1 nM and the k off ([2]; forebrain membranes, room temperature (22°C)) was 1.67 ± 0.15 ^*** min^−1. For the same compound, the k on ([2]; forebrain membranes, room temperature (22°C), 5 nM [^3H]muscimol) was 15 ± 3.1 × 10^8 ^** M^−1 × min^−1, the Kd ([3]; 22°C, K D = koff/kon) was 1.6 nM and the k off ([3]; room temperature (22°C)) was 0.00883 ± 0.00033 s⁻¹. The k on [3, 8] was 3.3 ± 0.2 × 10^8 M^−1 × min^−1, the “Apparent pKD” value [4] was 8.34 ± 0.01 and the “Apparent pKD” value [5] was 7.68 ± 0.05. The k off [6] was 0.49 ± 0.07 ^### min^−1, the k off [7, 9] was 0.00383 ± 0.00033 s⁻¹ and the k on [7, 9] was 1.4 ± 0.2 × 10^8 M^−1 × min^−1. The Kd ([7]; forebrain WT‐δKO (native δ‐GABAARs, α4βδ), K D = koff/kon) was ~1.6 nM and 1.6 nM.
